Results: patent US9643960B2, “Procaspase activating compounds” (The Board of Trustees of the University of Illinois, priority 2009, dated 2017)
Converted amounts (≈) assume the structure as drawn. Like-named read-outs stand apart in the source and are kept apart here.

What was measured:
[1] = test system: U937 human lymphoma cells; test: Cell death assay in U937 cells (sulforhodamine B, 72 h); type: cell-based; settings: Homo sapiens, U-937, 72 h
Description: To each well was added 2 μL of 100× compound stock solutions in DMSO at varying concentrations so that the cells were treated with concentrations between 0 μM and 100 μM compound. Each concentration was tested in quintuplicate. In each plate 5 wells received 10 μM etoposide as a positive control and 5 wells received 2 μL of DMSO as a negative control. […] 1 Specifically, to each well of the plate was added 50 μL of an 80% (w/v) solution of TCA in H2O and the plates were allowed to rest at 4° C. overnight. The plates were then washed gently with a steam of H2O five times to remove the excess TCA and precipitated serum proteins. […] After staining, the wells were gently washed 5 times with 100 μL of 1% (v/v) acetic acid to remove the unbound dye. The plates were then allowed to air dry. […] The OD was then read at 510 nm in a Molecular Dynamics plate reader and the percent cell death calculated and normalized to the positive control (100% cell death) and the negative control (0% cell death). The percent cell death was averaged for each compound concentration and plotted as a function of compound concentration. The data were fit to a logistical dose response curve using Table curve 2D and the IC50 value was calculated. The experiment was repeated three times and the average of the calculated IC50 values was reported. The standard error of the mean (SEM) was determined and reported for the triplicate experiments.
U-937 cells grow in culture as a suspension.

[2] = Solubility in β-cyclodextran; type: physicochemical
[3] = Formulation of PAC-1 in aqueous 2-hydroxypropyl-β-cyclodextrin; type: physicochemical
From the text: Formulation of PAC-1. […] Complete dissolution requires acidification of the aqueous solution to pH 1.5-2, and then the solution is restored to pH 5-6.

C57/BL6 mice = test: Neurotoxicity in mice after intravenous administration; type: in vivo, mouse; settings: for Neurotoxicity: Mice, preliminary results
[4] = test system: healthy research hound dog; test: Neurotoxicity in dogs; type: in vivo
From the text: Further information about this compound is described elsewhere herein.

EL-4 = test: Cytotoxicity in EL-4 cells (sulforhodamine B, 72 h); type: cell-based; settings: EL4, EL-4, Mouse Lymphoma
17-71 = test: Cytotoxicity in 17-71 cells (MTS cell viability assay); type: cell-based; settings: Canis lupus familiaris, 17-71, Dog Lymphoma
GL-1 = test: Cytotoxicity in GL-1 cells (sulforhodamine B, 72 h); type: cell-based; settings: Canis lupus familiaris, GL-1, Dog Lymphoma
OSW = test: Cytotoxicity in OSW cells (sulforhodamine B, 72 h); type: cell-based; settings: Canis lupus familiaris, Dog Lymphoma
Jurkat = test: Cytotoxicity in Jurkat cells (sulforhodamine B, 72 h); type: cell-based; settings: Human Leukemia
SK-Mel-5 = test: Cytotoxicity in SK-Mel-5 cells (sulforhodamine B, 72 h); type: cell-based; settings: SK-Mel-5, Human Melanoma
HeLa = test: Cytotoxicity in HeLa cells (sulforhodamine B, 72 h); type: cell-based; settings: Human Cervical
MDA-MB-231 = test: Cytotoxicity in MDA-MB-231 cells (sulforhodamine B, 72 h); type: cell-based; settings: MDA-MB-231, Human Breast
U-937 cells = test: Induction of apoptosis, annexin V/PI staining; type: cell-based, human; settings: 50 μM, 12 hours
Description: The cells were centrifuged (200 g for 5 min), washed with PBS (2 mL), resuspended in 500 μL Annexin V Binding Buffer. To each sample was added 10 μL of FITC conjugated Annexin V stain (Southern Biotech) and 10 μL of propidium iodide (Sigma) to a final concentration of 50 μg/mL. Cell populations were analyzed on a Benton Dickinson LSR II cell flow cytometer.

For C=CCc1cccc(/C=N/NC(=O)CN2CCN(Cc3ccccc3)CC2)c1O [PAC-1], the IC50 ([1]; read-out: IC50 Value (μM), U-937, Human Lymphoma, 72 hours) was 9.3 ± 0.5 µM, the IC50 ([1]; read-out: U937 (IC50 μM), 72 h exposure, sulforhodamine B assay) was 4.8 ± 1 µM and the “Solubility in β-Cyclodextran (mg β-CD/μmol Compound)” value [2] was 5.3 mg β-CD/μmol Compound. For the same compound, the solubility ([3]; aqueous 200 mg/mL 2-hydroxypropyl-β-cyclodextrin solution, aqueous with cosolvent or surfactant or cyclodextrin, aqueous 200 mg/mL solution of 2-hydroxypropyl-β-cyclodextrin) was 20 mg/mL (≈ 51 mM), the stability in solution ([3]; stored at 4° C., pH 5-6) was “at least 5 days” and the Neurotoxicity (C57/BL6 mice; 12.5 mg/kg) was “No”. For the same compound, the Neurotoxicity (C57/BL6 mice; 37.5 mg/kg) was “Yes”, the “clinical signs of toxicity” value (C57/BL6 mice; mice, 10 mg/kg i.v., observed 24 hours) was “no clinical signs of toxicity were observed” and the “clinical signs of toxicity” value (C57/BL6 mice; mice, 20 mg/kg i.v.) was “mild neurological symptoms including lethargy, and mild ataxia”. For the same compound, the “persistence of symptoms after injection” value (C57/BL6 mice; mice, 20 mg/kg i.v.) was 20 min, the “ataxia (incidence)” value (C57/BL6 mice; mice, 30 mg/kg i.v.) was 3/3 and the “clinical signs of toxicity” value (C57/BL6 mice; mice, 30 mg/kg i.v.) was “overt signs of neurotoxicity”. For the same compound, the duration of neurotoxicity (C57/BL6 mice; mice, 30 mg/kg i.v.) was “approximately 15 minutes”, the “loss of balance (incidence)” value (C57/BL6 mice; mice, 30 mg/kg i.v.) was 3/3 and the “onset of neurotoxicity after injection” value (C57/BL6 mice; mice, 30 mg/kg i.v.) was no more than 5 min. The “spasms (incidence)” value (C57/BL6 mice; mice, 30 mg/kg i.v.) was 1/3, the “clinical signs of toxicity” value (C57/BL6 mice; mice, 50 mg/kg i.v.) was “acute neurotoxic symptoms with more pronounced ataxia and loss of balance” and the “toxicity at higher doses” value ([4]; dog, formulation with 2-hydroxypropyl-β-cyclodextrin) was “acute neurological toxicity (ataxia and seizure)”. It also gave a duration of neurotoxicity ([4]; one hound dog, 60 mg/kg i.v.) of 20 min, an IC50 (EL-4) of 3.8 ± 0.9 µM and an IC50 (17-71) of 2.5 ± 0.9 µM. The IC50 (GL-1) was 4.9 ± 0.3 µM, the IC50 (OSW) was 8.6 ± 1.3 µM and the IC50 (Jurkat) was 5.7 ± 2.8 µM. For the same compound, the IC50 (SK-Mel-5) was 11.5 ± 3.6 µM, the IC50 (HeLa) was 15.5 ± 3.8 µM and the IC50 (MDA-MB-231) was 9.9 ± 1 µM. The “apoptosis (annexin V staining)” value (U-937 cells) was roughly 40%.
